Results on nine compounds are retold here after PubChem BioAssay AID288 (DTP/NCI, 2004).

The assay concerns BDF1 mice, M5076 sarcoma s.c., survival/tumor T/C. Briefly: NCI In Vivo Anticancer Drug Screen. Data for tumor model Sarcoma M5076 (subcutaneous) in B6D2F1 (BDF1) mice. As for the experimental part:
The antitumor activity of compounds was measured in mice bearing transplantable tumors. Survival or tumor size were measured and the results are expressed as the measurement made in the treated group (T) divided by the measurement made in the vehicle treated control group (C). The tumor model used in this assay is Sarcoma M5076 (subcutaneous) in B6D2F1 (BDF1) mice

Setting [1] is: endpoint: median survival time, dose: 50.0 mg/kg/injection, schedule: Q01DX009 (ip), vehicle: saline with Tween-80, higher = longer survival.
[2] abbreviates: endpoint: median survival time, dose: 100.0 mg/kg/injection, schedule: Q01DX009 (ip), vehicle: saline with Tween-80, higher = longer survival.
Where [3] appears, read: endpoint: median tumor weight (est.), dose: 100.0 mg/kg/injection, schedule: Q01DX009 (ip), vehicle: saline with Tween-80, higher = larger tumour.

Values joined by “and” are separate entries in the source; they are usually repeats but may differ in a detail not shown here. Identical values can stand only once. Results filed as inconclusive are left out.

Turning to `O=NN(CCCl)C(=O)NC1CCCCC1`, the T/C is 117 % of control (endpoint: median survival time, dose: 2.0 mg/kg/injection, schedule: Q04DX006 (ip), vehicle: saline with Tween-80, higher = longer survival); 168 % of control (endpoint: median survival time, dose: 3.0 mg/kg/injection, schedule: Q01DX009 (ip), vehicle: Klucel (hydroxypropylcellulose) (HPC), higher = longer survival); 250 % of control (endpoint: median survival time, dose: 4.0 mg/kg/injection, schedule: Q02DX033 (ip), vehicle: saline with Tween-80, higher = longer survival); 120 % of control (endpoint: median survival time, dose: 4.0 mg/kg/injection, schedule: Q04DX006 (ip), vehicle: saline with Tween-80, higher = longer survival); 215 % of control (endpoint: median survival time, dose: 6.0 mg/kg/injection, schedule: Q01DX009 (ip), vehicle: Klucel (hydroxypropylcellulose) (HPC), higher = longer survival); 255 % of control (endpoint: median survival time, dose: 8.0 mg/kg/injection, schedule: Q02DX033 (ip), vehicle: saline with Tween-80, higher = longer survival). The T/C (endpoint: median survival time, dose: 8.0 mg/kg/injection, schedule: Q04DX006 (ip), vehicle: saline with Tween-80, higher = longer survival) is 183 % of control; the T/C (endpoint: median survival time, dose: 12.0 mg/kg/injection, schedule: Q01DX009 (ip), vehicle: Klucel (hydroxypropylcellulose) (HPC), higher = longer survival) is 215 % of control; the T/C (endpoint: median survival time, dose: 16.0 mg/kg/injection, schedule: Q04DX006 (ip), vehicle: saline with Tween-80, higher = longer survival) is 241 % of control; the T/C (endpoint: median tumor weight (est.), dose: 1.5 mg/kg/injection, schedule: Q01DX009 (ip), vehicle: Klucel (hydroxypropylcellulose) (HPC), higher = larger tumour) is 10 % of control.

`Cc1c2ccncc2c(C)c2c1[nH]c1ccccc12`: the T/C reads like this: (endpoint: mean tumor weight, dose: 12.5 mg/kg/injection, schedule: Q02DX011 (ip), vehicle: saline, higher = larger tumour) 100 % of control; (endpoint: mean tumor weight, dose: 12.5 mg/kg/injection, schedule: Q02DX011 (ip), vehicle: water, higher = larger tumour) 55 % of control; (endpoint: mean tumor weight, dose: 25.0 mg/kg/injection, schedule: Q02DX011 (ip), vehicle: saline, higher = larger tumour) 65 % of control; (endpoint: mean tumor weight, dose: 50.0 mg/kg/injection, schedule: Q02DX011 (ip), vehicle: saline, higher = larger tumour) 36 % of control; (endpoint: median tumor weight (est.), dose: 12.5 mg/kg/injection, schedule: Q02DX011 (ip), vehicle: saline, higher = larger tumour) 355 % of control; (endpoint: median tumor weight (est.), dose: 12.5 mg/kg/injection, schedule: Q02DX011 (ip), vehicle: water, higher = larger tumour) 47 % of control. Moreover, the T/C is, setting by setting: (endpoint: median tumor weight (est.), dose: 25.0 mg/kg/injection, schedule: Q02DX011 (ip), vehicle: saline, higher = larger tumour) 314 % of control; (endpoint: median tumor weight (est.), dose: 50.0 mg/kg/injection, schedule: Q02DX011 (ip), vehicle: saline, higher = larger tumour) 98 % of control.

With `Nc1ncn(C2OC(CO)C(O)C2O)c(=O)n1` (stereo unspecified), the T/C reads like this: (endpoint: median survival time, dose: 0.6 mg/kg/injection, schedule: Q04DX009 (ip), vehicle: saline, higher = longer survival) 106 % of control; (endpoint: median survival time, dose: 1.2 mg/kg/injection, schedule: Q04DX009 (ip), vehicle: saline, higher = longer survival) 112 % of control; (endpoint: median survival time, dose: 2.4 mg/kg/injection, schedule: Q04DX009 (ip), vehicle: saline, higher = longer survival) 113 % of control; (endpoint: median survival time, dose: 4.8 mg/kg/injection, schedule: Q04DX009 (ip), vehicle: saline, higher = longer survival) 111 % of control.

For the compound `COC12C(COC(N)=O)C3=C(C(=O)C(C)=C(N)C3=O)N1CC1C2N1C` (stereo unspecified), the T/C (endpoint: mean tumor weight, dose: 1.5 mg/kg/injection, schedule: Q02DX011 (ip), vehicle: saline, higher = larger tumour) was 59 % of control; the T/C (endpoint: mean tumor weight, dose: 3.0 mg/kg/injection, schedule: Q02DX011 (ip), vehicle: saline, higher = larger tumour) was 51 % of control; the T/C (endpoint: mean tumor weight, dose: 6.0 mg/kg/injection, schedule: Q02DX011 (ip), vehicle: saline, higher = larger tumour) was 2 % of control; the T/C (endpoint: median tumor weight (est.), dose: 1.5 mg/kg/injection, schedule: Q02DX011 (ip), vehicle: saline, higher = larger tumour) is 65 % of control; the T/C (endpoint: median tumor weight (est.), dose: 3.0 mg/kg/injection, schedule: Q02DX011 (ip), vehicle: saline, higher = larger tumour) was 49 % of control and 53 % of control; the T/C (endpoint: median tumor weight (est.), dose: 6.0 mg/kg/injection, schedule: Q02DX011 (ip), vehicle: saline, higher = larger tumour) is 1 % of control.

In the case of `NC(C/[N+]([O-])=N/O)C(=O)O` (stereo unspecified), the T/C by setting is: (endpoint: mean tumor weight, dose: 62.5 mg/kg/injection, schedule: Q02DX011 (ip), vehicle: saline, higher = larger tumour) 88 % of control; (endpoint: mean tumor weight, dose: 125.0 mg/kg/injection, schedule: Q02DX011 (ip), vehicle: saline, higher = larger tumour) 108 % of control; (endpoint: mean tumor weight, dose: 250.0 mg/kg/injection, schedule: Q02DX011 (ip), vehicle: saline, higher = larger tumour) 42 % of control; (endpoint: median survival time, dose: 8.78 mg/kg/injection, schedule: Q01DX010 (ip), vehicle: alkali diluted with saline, higher = longer survival) 88 % of control and 90 % of control; (endpoint: median survival time, dose: 13.2 mg/kg/injection, schedule: Q01DX010 (ip), vehicle: alkali diluted with saline, higher = longer survival) 91 % of control and 93 % of control; (endpoint: median survival time, dose: 19.8 mg/kg/injection, schedule: Q01DX010 (ip), vehicle: alkali diluted with saline, higher = longer survival) 118 % of control. Also, the T/C (endpoint: median survival time, dose: 29.6 mg/kg/injection, schedule: Q01DX010 (ip), vehicle: alkali diluted with saline, higher = longer survival) was 114 % of control and 118 % of control; the T/C (endpoint: median survival time, dose: 44.4 mg/kg/injection, schedule: Q01DX010 (ip), vehicle: alkali diluted with saline, higher = longer survival) is 105 % of control and 106 % of control; the T/C (endpoint: median survival time, dose: 52.7 mg/kg/injection, schedule: Q04DX005 (ip), vehicle: alkali diluted with saline, higher = longer survival) is 89 % of control and 90 % of control; the T/C (endpoint: median survival time, dose: 66.7 mg/kg/injection, schedule: Q01DX010 (ip), vehicle: alkali diluted with saline, higher = longer survival) was 115 % of control and 116 % of control; the T/C (endpoint: median survival time, dose: 79.0 mg/kg/injection, schedule: Q04DX005 (ip), vehicle: alkali diluted with saline, higher = longer survival) was 93 % of control; the T/C (endpoint: median survival time, dose: 119.0 mg/kg/injection, schedule: Q04DX005 (ip), vehicle: alkali diluted with saline, higher = longer survival) was 123 % of control. The T/C runs as follows: (endpoint: median survival time, dose: 267.0 mg/kg/injection, schedule: Q04DX005 (ip), vehicle: alkali diluted with saline, higher = longer survival) 106 % of control and 112 % of control; (endpoint: median survival time, dose: 400.0 mg/kg/injection, schedule: Q04DX005 (ip), vehicle: alkali diluted with saline, higher = longer survival) 115 % of control; (endpoint: median tumor weight (est.), dose: 50.0 mg/kg/injection, schedule: Q02DX011 (ip), vehicle: alkali diluted with saline, higher = larger tumour) 91 % of control; (endpoint: median tumor weight (est.), dose: 100.0 mg/kg/injection, schedule: Q02DX011 (ip), vehicle: alkali diluted with saline, higher = larger tumour) 66 % of control.

For `COC1C(O)C(C)OC(OC2C(Oc3cccc4c(O)c5c(=O)oc6ccc(C)c7c(=O)oc(c34)c5c67)OC(C)C(O)C2O)C1O` (stereo unspecified), the T/C (endpoint: mean tumor weight, dose: 25.0 mg/kg/injection, schedule: Q02DX011 (ip), vehicle: Klucel (hydroxypropylcellulose) (HPC), higher = larger tumour) was 83 % of control; the T/C (endpoint: mean tumor weight, dose: 50.0 mg/kg/injection, schedule: Q02DX011 (ip), vehicle: Klucel (hydroxypropylcellulose) (HPC), higher = larger tumour) was 96 % of control; the T/C (endpoint: mean tumor weight, dose: 100.0 mg/kg/injection, schedule: Q02DX011 (ip), vehicle: Klucel (hydroxypropylcellulose) (HPC), higher = larger tumour) is 57 % of control; the T/C (endpoint: median tumor weight (est.), dose: 50.0 mg/kg/injection, schedule: Q02DX011 (ip), vehicle: Klucel (hydroxypropylcellulose) (HPC), higher = larger tumour) is 82 % of control; the T/C (endpoint: median tumor weight (est.), dose: 100.0 mg/kg/injection, schedule: Q02DX011 (ip), vehicle: Klucel (hydroxypropylcellulose) (HPC), higher = larger tumour) is 48 % of control.

On to `CC1(C)OC(C)(C)c2c1nnc(-c1ccccc1)[n+]2[O-]`, for which the T/C under setting [1] was 93 % of control; the T/C under setting [2] was 105 % of control; the T/C (endpoint: median survival time, dose: 200.0 mg/kg/injection, schedule: Q01DX009 (ip), vehicle: saline with Tween-80, higher = longer survival) was 103 % of control; the T/C under setting [3] was 84 % of control; the T/C (endpoint: median tumor weight (est.), dose: 200.0 mg/kg/injection, schedule: Q01DX009 (ip), vehicle: saline with Tween-80, higher = larger tumour) is 60 % of control.

`CC(=O)Nc1ccc(OC(=O)Nc2ccc(C)c(NC(=O)Oc3ccc(NC(C)=O)cc3)c2)cc1`: the T/C was 113 % of control under setting [1]; 95 % of control under setting [2]; 47 % of control (endpoint: median tumor weight (est.), dose: 50.0 mg/kg/injection, schedule: Q01DX009 (ip), vehicle: saline with Tween-80, higher = larger tumour); 187 % of control under setting [3].

Regarding `Nc1nnc[se]1`, the T/C reads like this: (endpoint: median survival time, dose: 50.0 mg/kg/injection, schedule: Q04DX003 (ip), vehicle: saline with Tween-80, higher = longer survival) 121 % of control; (endpoint: median survival time, dose: 100.0 mg/kg/injection, schedule: Q04DX003 (ip), vehicle: saline with Tween-80, higher = longer survival) 116 % of control; (endpoint: median survival time, dose: 200.0 mg/kg/injection, schedule: Q04DX003 (ip), vehicle: saline with Tween-80, higher = longer survival) 124 % of control.
